Test results as given in BindingDB's records for doi:10.1016/j.bmc.2016.03.038 (2016).

Columns and labels:
[1] = Inhibition of mouse GAT3 expressed in HEK293 cells assessed as [3H]GABA uptake preincubated for 25 mins followed by [3H]GABA/unlabeled GABA addition measured after 4 mins by liquid scintillation counting analysis
[2] = Inhibition of mouse GAT2 expressed in HEK293 cells assessed as [3H]GABA uptake preincubated for 25 mins followed by [3H]GABA/unlabeled GABA addition measured after 10 mins by liquid scintillation counting analysis

IC50 [1] [µM] | IC50 [2] [µM] | Structure (SMILES)
44.5 | – | O=C(O)[C@H]1CNCC[C@@H]1CCCC/C=C/c1ccccc1-c1ccccc1
– | 52.2 | O=C(O)[C@H]1CNCC[C@H]1CCCC/C=C/c1ccccc1-c1ccccc1
37.6 | – | O=C(O)[C@H]1CNCC[C@H]1CCCC#Cc1ccccc1Cc1ccccc1
62.5 | – | O=C(O)[C@H]1CNCC[C@H]1CC/C=C/c1ccccc1Cc1ccccc1
